Consider 3 compounds from article PMC10800023 (Human Molecular Genetics, 2023).

For orientation: Papp means the rate of passage across a membrane or cell layer, normalised by area and donor concentration. Low values mean poor permeation, high ones ready permeation. In general, efflux ratio refers to the permeability from basolateral to apical divided by that in the opposite direction, in the common usage. The Papp A→B is how fast a substance crosses the layer from the apical side. High values mean ready permeation, low ones poor permeation. As usually defined, the Papp B→A is the apparent permeability from the basolateral to the apical side of a cell layer. By Cmax is commonly meant the maximum level reached in the sampled fluid or tissue. A word on the AUC: it is concentration integrated over time. The term Kp denotes the ratio of the level in a tissue or fluid to that in plasma or blood.

Series [1] deals with P-gp (MDR1). As to the kind of experiment: MDR1-MDCK permeability / P-gp efflux assay. The conditions noted are these: MDCK-MDR1, pH 7.4. As to the method: (§1) To measure transport by P-gp, Madin-Darby canine kidney (MDCK) cells that had been transfected with the human P-gp (MDR1) gene were plated in a Transwell plate and cultured until polarized. MDCK cells that are not transfected with human P-gp were used as a control. Compounds were added to either the apical or the basolateral side of the cells, and transport across the membrane was measured.
(§2) Testing for permeability and MDR1 substrate assessment was done in MDCK cells transfected to overexpress human MDR1 gene that encodes efflux transporter protein (P-gp). […] Briefly, cells were maintained in Dulbecco’s modified Eagle medium (DMEM) with 10% fetal bovine serum and 1% penicillin/streptomycin in a humidified incubator at 37°C with 5% CO2. The study was performed by Absorption Systems (now Pharmaron; Exton, PA). The MDR1-MDCK and MDCK control cell lines were seeded into 12-well plates for 7 days. Integrity of monolayer tight junctions was monitored preincubation by transepithelial electrical resistance (TEER) measurement. […] The samples were withdrawn at t = 0 and 60 min from the receiver and donor compartments. Compound levels were measured by LC/MS–MS. Additionally, post-assay, cell monolayer integrity was checked with Lucifer Yellow permeability measurement. Transport assay low- and high-permeability control compounds were run in parallel for assay validation. Papp values were calculated considering compound concentrations across the monolayer and cell surface area. Efflux ratios were calculated based on Papp B > A over Papp A > B. The difference between the MDR1-MDCK and the MDCK cell efflux ratios was also calculated. […] Compounds were classified by Absorption Systems/Pharmaron as follows: […]

Series [2] concerns human P-gp (MDR1). As to the kind of experiment: MDR1-MDCK permeability / P-gp efflux assay. The conditions noted are these: for Differences between ratios: MDR1-MDCK minus MDCK efflux ratio; for brain penetration classification: 1 and 10 μM, from Papp (A-to-B) and efflux ratio. As to the method:
as §1, §2

For series [3] the following is noted: DBA/2 J, mouse, in vivo.
Protocol: (§3) The brain-to-plasma ratio was then calculated using the area under the curve (AUC) for brain exposure and the AUC for plasma exposure.
Series [4] relates to B10-mdx mice. As to the kind of experiment: Four-limb grip strength (Study 2). The class given is in vivo, mouse. As to conditions: 4 weeks of treatment, not complete, not dose dependent. As to the method: After 4 weeks of treatment, muscle strength was evaluated using a grip strength meter.
Study 2: The goal of the second study was to evaluate corticosteroid side effects and efficacy in a longer study (4 months). After 28 days of dosing, mice were tested for depression-like behavior using a measure of corticosteroid-induced depression (FST followed by TST). Muscle function was tested via grip strength. Tests for depression and for grip-strength were done in a blinded manner. After 4 months, mice were euthanized, and tissues were collected. Bone from whole left leg was collected for micro-CT analysis. The number of animals per group was as follows: WT, n = 16; B10-mdx, n = 15; corticosteroid-treated groups, n = 8–10.
A four-limb grip strength meter from Bioseb was used to determine the maximal peak force (g) developed by the mouse when the examiner tried to pull it out of a specially designed grid for mice (Bioseb, BIO-GS3 & BIO-GRIPGS). The examiner was blinded, and a total of 5 measurements were applied to each mouse, 1–2 min between measurements. The average of the 5 values was used for subsequent calculations.

Series [5] is described as follows: MDCK control cell permeability (not transfected with human P-gp). As to conditions: dog, pH 7.4. As to the method:
as §1, §2

Series [6] can be described thus: Published PK data in patients. As to conditions: in vivo, oral, human, 0.75 mg/kg, extrapolated assuming linear increase from the lower dose. From the text: ^a Conklin […] JM, Hoffman EP, Jusko WJ, Mavroudis PD, Schwartz BD, […] LJ, Smith EC, Mah JK, Guglieri M, Nevo Y, Kuntz N, McDonald CM, Tulinius M, Ryan MM, Webster R, Castro D, Finkel RS, Smith AL, Morgenroth […], Jaros M, Shale […] JM, […], Ward […], Cornish MR, Clemens PR. […] Epub 2018 Sep 13. PMID: 30219580; PMCID: PMC6218284. […] Bashar T, Apu […]. […] Dose Response. 2018 Jul 25;16(3):1559325818783932. doi: 10.1177/1559325818783932. PMID: 30083083; PMCID: PMC6073839. ^c Assumed linear increase in AUC and Cmax from 0.25 to 0.75 mg/kg. This may be an overestimate. However, there is support for linearity in Al-Habet S, Rogers HJ. Pharmacokinetics of intravenous and oral prednisolone. Br J Clin Pharmacol. 1980 Nov;10(5):503-8. doi: 10.1111/j.1365-2125.1980.tb01796.x. PMID: 7437263; PMCID: PMC1430141. ^d https://www.accessdata.fda.gov/drugsatfda_docs/nda/2017/208684,208685[…]

Series [7] is described as follows: in vivo. The conditions noted are these: C57BL/10, mouse, oral; for Kp: brain/plasma; for AUC / Cmax: plasma.
A short description of series [8]: Pharmacokinetics and brain/plasma biodistribution in WT DBA/2 J mice.
Protocol: as §3
Series [9] concerns C57BL/6 mice. As to the kind of experiment: RT-qPCR of brain mRNA in WT mice (Study 3). As to conditions: daily for 35 days, prednisolone 15 mg/kg or vamorolone 45 mg/kg.
Protocol: RNA concentration was measured by using Cytation 5 (BioTek).
The nature of series [10]: in vivo. As to conditions: DBA/2 J, mouse, plasma, po.
Protocol: as §3
Series [11] is described as follows: Pharmacokinetics and biodistribution in C57BL/10 mice.
The subject of series [12] is MDCK cells. As to the kind of experiment: MDCK control cell permeability (not transfected with human P-gp). As to conditions: 1 μM. As to the method: as §1, §2
For series [13] the following is noted: cited from earlier work.
[14] abbreviates: 30 mg/kg oral gavage, DBA/2 J mice.

For `CC(=O)OCC(=O)[C@@]12N=C(C)O[C@@H]1C[C@H]1[C@@H]3CCC4=CC(=O)C=C[C@]4(C)[C@H]3[C@@H](O)C[C@@]12C` [Deflazacort], in series [1], the Papp at 60 min is under 3 ×10⁻⁶ cm/s; the efflux ratio at 60 min, 1 μM stood at 60.2; the efflux ratio at 60 min, 10 μM is 58.4. In addition, in series [2] (1 μM), the “Basolateral to Apical MDR1-MDCK” value is reported as 62.60 10 ^ −6 cm/s and the Differences between ratios worked out at 59. In addition, in series [2] (10 μM), the “Apical to Basolateral MDR1-MDCK” value is listed as 1.07 10 ^ −6 cm/s and the Differences between ratios is given as 57. The brain penetration classification result in series [2] is “low”. Also, in [2] (dog, MDCK-MDR1, pH 7.4), the Papp A→B at 60 min, 1 μM is 1.04 ×10⁻⁶ cm/s and the Papp B→A at 60 min, 10 μM amounted to 62.6 ×10⁻⁶ cm/s. For the same compound, in series [3], the “predicted AUC in mice” value is 446 ng·h/mL and the “predicted Cmax in mice” value was 267.5 ng/mL. In addition, the grip strength result in series [4] was “showed some protection from loss of grip strength”. Moreover, in [5], the apical-to-basolateral permeability (Papp A→B) at 60 min, 1 μM stood at 12.3 ×10⁻⁶ cm/s; the apparent permeability from apical to basolateral (Papp A→B) at 60 min, 10 μM turned out to be 6.66 ×10⁻⁶ cm/s; the Papp B→A at 60 min, 1 μM is 11.6 ×10⁻⁶ cm/s; the Papp B→A at 60 min, 10 μM stood at 6.7 ×10⁻⁶ cm/s. Further, in series [5], the efflux ratio at 60 min, 1 μM was 0.949 and the efflux ratio at 60 min, 10 μM is 1.01.

For `C[C@]12C=CC(=O)C=C1CC[C@@H]1[C@@H]2[C@@H](O)C[C@@]2(C)[C@H]1CC[C@]2(O)C(=O)CO` [Prednisolone], the Cmax in [6] was about 705 ng/mL. For the same compound, the AUC in series [6] (read-out: AUC (Day 1)) is about 7070 ng·h/mL.

In series [7] (5 mg/kg), `C[C@@H]1C[C@H]2[C@@H]3CCC4=CC(=O)C=C[C@]4(C)C3=CC[C@]2(C)[C@@]1(O)C(=O)CO` [Vamorolone] came in with a Kp of 0.5, an AUC of 2850 ng·h/mL and a Cmax of 818 ng/mL. Also, in series [7] (30 mg/kg), the Kp is 0.46, the AUC worked out at 33900 ng·h/mL and the highest level (Cmax) was 8790 ng/mL. In series [8] (setting [14]), the “Brain AUC” value is on record as 8070 h∙ng/g of tissue, the “Brain Cmax” value is 1825 ng/g of tissue, the “Brain/plasma ratio based on AUC” value is about 0.30 and the “Brain/plasma ratio based on Cmax” value is about 0.68. Besides, in [8] (15, 30, and 45 mg/kg in mouse vs 6 mg/kg/day in human), the “fold higher exposure in the mouse (based on Cmax) than human clinical exposure” value is listed as 2–4 fold. Besides, in series [8] (mouse (DBA), 30 mg/kg), the Cmax turned out to be 2700 ng/mL. Moreover, in [9], the “Ddrd4 mRNA levels in the CNS” value is “increased” and the “Fkbp5 mRNA levels in the CNS” value is “increased”. Also, in series [10] (15 mg/kg), the AUC amounted to 9350 ng·h/mL and the Cmax amounted to 1980 ng/mL. Also, in series [10] (30 mg/kg), the area under the curve (AUC) is 26600 ng·h/mL and the Cmax worked out at 2700 ng/mL. For the same compound, in series [10] (45 mg/kg), the area under the curve (AUC) came to 34100 ng·h/mL and the Cmax turned out to be 3470 ng/mL. In series [1], the Papp at 60 min was over 3 ×10⁻⁶ cm/s; the efflux ratio at 60 min, 1 μM was found to be 6.84; the efflux ratio at 60 min, 10 μM is 6.42. The Differences between ratios in series [2] (1 μM) was determined as 6. Also, in series [2] (10 μM), the “Apical to Basolateral MDR1-MDCK” value is recorded as 8.73 10 ^ −6 cm/s and the Differences between ratios is listed as 6. In addition, the brain penetration classification result in series [2] was “moderate”. In series [2] (dog, MDCK-MDR1, pH 7.4), this compound came in with a Papp A→B at 60 min, 1 μM of 7.99 ×10⁻⁶ cm/s; a Papp B→A at 60 min, 1 μM of 54.7 ×10⁻⁶ cm/s; a basolateral-to-apical permeability (Papp B→A) at 60 min, 10 μM of 56.1 ×10⁻⁶ cm/s. Besides, in [11] (5 mg/kg), the “Brain AUC” value is 1418 hr∙ng/g of tissue, the “Brain Cmax” value is listed as 443 ng/g of tissue and the “Brain/plasma ratio based on Cmax” value turned out to be 0.54. For the same compound, in series [11] (30 mg/kg), the “Brain AUC” value is 15538 hr∙ng/g of tissue and the “Brain Cmax” value is 4402 ng/g of tissue. For the same compound, in series [5], the Papp A→B at 60 min, 10 μM was found to be 33.4 ×10⁻⁶ cm/s; the Papp B→A at 60 min, 1 μM stood at 25.2 ×10⁻⁶ cm/s; the Papp B→A at 60 min, 10 μM amounted to 22.7 ×10⁻⁶ cm/s; the efflux ratio at 60 min, 1 μM is 0.755. The efflux ratio at 60 min, 10 μM in series [5] is 0.746. Also, in series [12], the “Apical to Basolateral MDCK” value is listed as 33.4 10 ^ −6 cm/s. The “reduction of serum osteocalcin levels” value in [13] (Phase 2A, subjects with DMD, 6 mg/kg/day, 14 days of dosing) was ~ 33%. Moreover, the “reduction of osteocalcin levels” value in series [13] (Phase 2b 24-week study in DMD boys, 6 mg/kg) is 0.17%.
